# According to ChEMBL document CHEMBL4418493, “N-hydroxyformamide compounds and compositions comprising them for use as BMP1, TLL1 and/or TLL2 inhibitors” (2018):
# pIC50: −log10 of the molar value.
# Columns and labels:
# Tolloid-like protein 1 = Tolloid-like protein 1 (Homo sapiens, UniProt O43897, I156V/N221S/V284A); experiment: Inhibition of recombinant human TLL1 I156V/N221S/V284A mutant expressed in CHOE1A cells pre-incubated for 10 mins before promyostatin peptide substrate addition and measured after 60 mins by FRET based assay; assay type: cell-based
# [1] = Drug metabolism in heparinized pooled human plasma at pH 7.5 assessed as formation of (3-ethoxy-5-(5-((((R)-2-((R)-1-(N-hydroxyformamido)propyl)heptanamido)methyl)carbamoyl) furan-2-yl)phenyl)phosphonic acid at 100 to 2000 ng/ml incubated up to 4 or 24 hrs by LC-MS/MS analysis; assay type: ADME, cell-free; conditions: pH 7.5, 24 h
# [2] = Reduction in PICP levels in human cardiac fibroblasts incubated for 24 to 48 hrs by ELISA; assay type: functional
# Tolloid-like protein 2 = molecular target: T1, Tolloid-like protein 2 (Homo sapiens, UniProt Q9Y6L7); experiment: Inhibition of C-terminal Avi-6x-His epitope tagged and N-terminal human RAGE signal sequence tagged recombinant human TLL2 (26 to 1015 amino acids) expressed in CHOE1A cells incubated for 60 mins with promyostatin peptide substrate by FRET based assay; assay type: cell-based
# T1 sequence (Q9Y6L7 whole entry): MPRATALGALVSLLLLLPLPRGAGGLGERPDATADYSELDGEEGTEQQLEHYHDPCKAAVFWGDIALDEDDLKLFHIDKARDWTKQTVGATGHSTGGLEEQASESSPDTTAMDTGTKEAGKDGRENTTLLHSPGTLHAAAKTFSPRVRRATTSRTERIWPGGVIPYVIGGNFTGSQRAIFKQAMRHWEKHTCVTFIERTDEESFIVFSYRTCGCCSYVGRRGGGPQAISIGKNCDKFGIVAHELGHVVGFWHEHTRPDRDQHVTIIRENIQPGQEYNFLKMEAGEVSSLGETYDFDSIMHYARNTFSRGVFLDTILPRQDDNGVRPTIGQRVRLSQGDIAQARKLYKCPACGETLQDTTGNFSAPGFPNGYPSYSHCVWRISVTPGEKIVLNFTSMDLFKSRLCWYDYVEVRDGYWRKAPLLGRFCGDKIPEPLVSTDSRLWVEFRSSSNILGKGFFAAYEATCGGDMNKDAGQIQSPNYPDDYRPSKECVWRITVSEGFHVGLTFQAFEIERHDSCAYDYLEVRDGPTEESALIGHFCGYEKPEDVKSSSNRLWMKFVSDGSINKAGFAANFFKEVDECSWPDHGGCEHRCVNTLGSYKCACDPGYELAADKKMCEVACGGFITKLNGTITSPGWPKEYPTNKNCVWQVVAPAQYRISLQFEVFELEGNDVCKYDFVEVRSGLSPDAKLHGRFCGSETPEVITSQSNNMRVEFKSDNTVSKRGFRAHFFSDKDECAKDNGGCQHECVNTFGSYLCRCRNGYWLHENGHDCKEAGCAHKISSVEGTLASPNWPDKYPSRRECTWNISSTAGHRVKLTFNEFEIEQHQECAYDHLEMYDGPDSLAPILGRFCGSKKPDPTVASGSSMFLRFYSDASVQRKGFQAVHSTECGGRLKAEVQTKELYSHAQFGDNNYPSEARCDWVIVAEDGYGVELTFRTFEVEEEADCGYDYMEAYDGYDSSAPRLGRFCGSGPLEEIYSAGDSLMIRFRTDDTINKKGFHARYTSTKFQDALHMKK
# [3] = molecular target: T2, Bone morphogenetic protein 1 (Homo sapiens, UniProt P13497); experiment: Inhibition of C-terminal FLAG-6x-His epitope tagged and N-terminal human RAGE signal sequence tagged human BMP1 (121 to 721 amino acids) expressed in CHO-E1a cells pre-incubated for 10 mins before promyostatin peptide substrate addition and measured after 60 mins using 0.5 nM BMP1 by FRET based assay; assay type: cell-based
# T2 sequence (P13497 whole entry): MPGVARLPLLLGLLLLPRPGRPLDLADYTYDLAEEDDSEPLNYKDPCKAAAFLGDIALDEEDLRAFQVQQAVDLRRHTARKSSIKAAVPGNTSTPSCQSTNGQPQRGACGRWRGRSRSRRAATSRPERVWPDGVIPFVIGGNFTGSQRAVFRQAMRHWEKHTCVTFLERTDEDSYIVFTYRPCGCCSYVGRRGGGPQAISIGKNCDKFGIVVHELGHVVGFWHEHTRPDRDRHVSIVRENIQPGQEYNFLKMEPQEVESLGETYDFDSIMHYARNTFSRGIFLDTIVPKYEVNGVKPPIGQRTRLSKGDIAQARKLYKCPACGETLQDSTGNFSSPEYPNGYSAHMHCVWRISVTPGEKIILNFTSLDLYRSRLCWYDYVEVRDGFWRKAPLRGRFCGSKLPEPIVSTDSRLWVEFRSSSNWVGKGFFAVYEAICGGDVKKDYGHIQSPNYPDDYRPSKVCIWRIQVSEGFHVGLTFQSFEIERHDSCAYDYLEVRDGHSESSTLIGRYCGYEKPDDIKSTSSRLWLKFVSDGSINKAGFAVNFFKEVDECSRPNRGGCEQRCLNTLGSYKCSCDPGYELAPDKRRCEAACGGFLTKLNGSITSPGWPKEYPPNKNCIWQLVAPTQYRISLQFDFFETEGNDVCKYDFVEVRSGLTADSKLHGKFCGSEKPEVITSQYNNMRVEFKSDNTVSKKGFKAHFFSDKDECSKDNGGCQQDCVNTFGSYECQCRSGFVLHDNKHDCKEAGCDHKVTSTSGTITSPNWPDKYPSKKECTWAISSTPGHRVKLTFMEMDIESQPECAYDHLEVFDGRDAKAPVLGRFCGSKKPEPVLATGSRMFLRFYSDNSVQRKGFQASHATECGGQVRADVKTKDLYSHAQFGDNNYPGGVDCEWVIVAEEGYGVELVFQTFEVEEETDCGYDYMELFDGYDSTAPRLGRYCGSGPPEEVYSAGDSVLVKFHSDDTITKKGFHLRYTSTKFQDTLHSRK
# [4] = Drug metabolism in heparinized pooled human plasma at pH 7.5 assessed as formation of (S)-2-(2-(carboxymethoxy)-4-(5-((((R)-2-((R)-1-(N-hydroxyformamido)propyl)heptanamido)methyl)carbamoyl)furan-2-yl)benzamido)succinic acid at 100 to 2000 ng/ml incubated up to 4 or 24 hrs by LC-MS/MS analysis; assay type: ADME, cell-free; conditions: pH 7.5, 24 h
# [5] = Stability in pH 7.96 assessed as compound purity level at 1 mg/ml heated to 40 degC and measured at 200 hrs by LC/MS analsysis; assay type: physicochemical; conditions: buffer, read-out: Stability
# [6] = Drug metabolism in heparinized pooled human plasma at pH 7.5 assessed as conversion to active compound at 100 to 2000 ng/ml incubated for 4 by LC-MS/MS analysis; assay type: ADME, cell-free
# [7] = Reduction in mature collagen deposition levels in human cardiac fibroblasts incubated for 24 to 48 hrs by immunostaining based assay; assay type: functional
# Chain of Tolloid-like protein 1 (O43897 148-1013 I156V/N221S/V284A limits assumed): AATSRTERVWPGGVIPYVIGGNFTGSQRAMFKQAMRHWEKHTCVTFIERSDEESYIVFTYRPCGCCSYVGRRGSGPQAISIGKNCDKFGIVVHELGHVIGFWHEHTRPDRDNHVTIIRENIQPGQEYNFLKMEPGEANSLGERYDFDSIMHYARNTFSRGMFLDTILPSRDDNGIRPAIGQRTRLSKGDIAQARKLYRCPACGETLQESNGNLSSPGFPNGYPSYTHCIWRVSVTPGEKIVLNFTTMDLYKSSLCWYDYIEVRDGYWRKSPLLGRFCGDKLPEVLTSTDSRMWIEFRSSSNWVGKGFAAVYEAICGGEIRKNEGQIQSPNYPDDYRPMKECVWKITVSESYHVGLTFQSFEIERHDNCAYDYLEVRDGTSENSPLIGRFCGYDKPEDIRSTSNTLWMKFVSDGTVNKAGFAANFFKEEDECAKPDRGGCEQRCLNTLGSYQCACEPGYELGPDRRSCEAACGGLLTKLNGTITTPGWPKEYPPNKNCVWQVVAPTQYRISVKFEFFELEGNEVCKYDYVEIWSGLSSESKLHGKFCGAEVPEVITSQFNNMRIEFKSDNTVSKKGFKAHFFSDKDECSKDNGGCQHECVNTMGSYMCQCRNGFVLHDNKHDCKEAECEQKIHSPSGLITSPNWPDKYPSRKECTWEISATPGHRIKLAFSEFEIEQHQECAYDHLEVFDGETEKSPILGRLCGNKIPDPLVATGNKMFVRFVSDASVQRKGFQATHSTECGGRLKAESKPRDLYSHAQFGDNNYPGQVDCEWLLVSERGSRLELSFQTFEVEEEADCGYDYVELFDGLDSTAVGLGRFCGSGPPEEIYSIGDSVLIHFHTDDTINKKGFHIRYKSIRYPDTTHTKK
Structure (SMILES),pIC50 (Tolloid-like protein 1),Drug metabolism [1],pIC50 [2],pIC50 (Tolloid-like protein 2),pIC50 [3],Drug metabolism [4],"remaining at 200 h, 1 mg/ml [5] [%]",Drug metabolism [6] [%],pIC50 [7]
CCCCC[C@@H](C(=O)NCNC(=O)c1ccc(-c2cc(OCC)cc(P(=O)(OCOC(C)=O)OCOC(C)=O)c2)o1)[C@@H](CC)N(O)C=O,6.40 to 6.60,Metabolite_Detected,5.40 to 6.40,6.10 to 6.40,6.50 to 6.90,,,,
CCCCC[C@@H](C(=O)NCNC(=O)c1ccc(-c2ccc(C(=O)OCCN(C)C)cc2)o1)[C@@H](CC)N(O)C=O,6.40 to 6.60,,5.40 to 6.40,6.10 to 6.40,6.50 to 6.90,,,,
CCCCC[C@@H](C(=O)NCNC(=O)c1ccc(-c2ccc(C(=O)N[C@@H](CC(=O)O)C(=O)O)c(OCC(=O)O)c2)o1)[C@@H](CC)N(C=O)OC(=O)c1cccnc1,,,> 5.40,,,Metabolite_Detected,< 80,> 10,
CCCCC[C@@H](C(=O)NCNC(=O)c1ccc(-c2ccc(C(=O)N[C@@H](CC(=O)OC)C(=O)OC)c(OCC(=O)OC)c2)o1)[C@@H](CC)N(O)C=O,6.40 to 6.60,,5.40 to 6.40,6.10 to 6.40,6.50 to 6.90,,< 80,,
CCCCC[C@@H](C(=O)NCNC(=O)c1ccc(-c2ccc(C(=O)N[C@@H](CC(=O)O)C(=O)OC(C)(C)C)c(OCC)c2)o1)[C@@H](CC)N(O)C=O,6.40 to 6.60,,5.40 to 6.40,6.10 to 6.40,6.50 to 6.90,,,,
CCCCC[C@@H](C(=O)NCNC(=O)c1ccc(-c2ccc(C(=O)OCC)cc2)o1)[C@@H](CC)N(O)C=O,6.40 to 6.60,,5.40 to 6.40,6.10 to 6.40,6.50 to 6.90,,,,
CCCCC[C@@H](C(=O)NCNC(=O)c1ccc(-c2ccc(C(=O)N[C@@H](CC(=O)O)C(=O)O)c(OCC(=O)O)c2)o1)[C@@H](CC)N(C=O)OC(=O)c1ccccc1OC(C)=O,,,> 5.40,,,Metabolite_Detected,< 80,> 10,
CCCCC[C@@H](C(=O)NCNC(=O)c1ccc(-c2cc(OCC)cc(P(=O)(Oc3ccccc3)Oc3ccccc3)c2)o1)[C@@H](CC)N(O)C=O,,,> 5.40,,6.50 to 6.90,,,,
CCCCC[C@@H](C(=O)NCNC(=O)c1ccc(-c2ccc(C(=O)N[C@@H](CC(=O)O)C(=O)OCOC(=O)c3ccccc3)c(OCC)c2)o1)[C@@H](CC)N(O)C=O,> 6.60,,> 6.40,> 6.40,> 6.50,,,,
CCCCC[C@@H](C(=O)NCNC(=O)c1ccc(-c2ccc(C(=O)N[C@@H](CC(=O)O)C(=O)OCC)c(OCC)c2)o1)[C@@H](CC)N(O)C=O,6.40 to 6.60,,5.40 to 6.40,6.10 to 6.40,6.50 to 6.90,,,,> 6.00
CCCCC[C@@H](C(=O)NCNC(=O)c1ccc(-c2ccc(C(=O)N[C@@H](CC(=O)OCC)C(=O)OCC)c(OCC)c2)o1)[C@@H](CC)N(O)C=O,6.40 to 6.60,,5.40 to 6.40,6.10 to 6.40,6.50 to 6.90,,,,
